Molecules are shown by their SMILES.

What all share (format): cell-based
One assay deals with C6 rat glioma. Description: MTS cell viability assay, C6 glioma cells. To be noted: 48 hours, mean±SEM, n=3. As for the experimental part:
The human glioma cell lines U87, U251, T98G, U373, and rat glioma cell line RT2 provided by Dr. Michael Hsiao (Genomics Research Center, Academia Sinica, Taiwan) were cultured in Dulbecco's Modified Eagle medium (DMEM) (Caisson) supplemented with 10% fetal bovine serum (FBS) (Sigma-Aldrich), 2 mM L-glutamine (Caisson), 100 U/ml penicillin, and 100 μg/ml streptomycin (Caisson). The rat glioma C6 cell line provided by Dr. Shun-Fen Tzeng (National Cheng Kung University, Taiwan) was cultured in DMEM/F12 (Caisson) supplemented with 10% fetal bovine serum, 2 mM L-glutamine, 100 U/ml penicillin, and 100 μg/ml streptomycin. The human normal glia cell line SVGP12, kindly provided by Dr. Michael Hsiao, was cultured in Minimum Essential Medium (MEM) (Invitrogen) supplemented with 10% fetal bovine serum, 2 mM L-glutamine, 100 U/ml penicillin, and […]. Primary glia cells were prepared by surgery. Cerebral cortices without meninges were dissected from postnatal (P0-P2) Sprague-Dawley (SD, NCKU Laboratory Animal Center) rats and dissociated in 0.05% trypsin-EDTA (Biowest) at 37° C. for 10 min. Culture medium was added and pipetted for several times, and supernatant was removed after a centrifugation at 1,000 rpm for 5 minutes. […]
Cell proliferation was determined by MTS (tetrazolium compound, 3-(4,5-dimethylthiazol-2-yl)-5-(3-carboxymethoxyphenyl)-2-(4-sulfophenyl)-2H-tetrazolium) assay (Promega). […] The absorbance of soluble formazan was measured at 490 nm with microplate reader (Molecular device). The cell viability was determined by the percentage of the absorption relative to untreated control. […]
To investigate the effect of 2-aryl-4-quinazolinone in accordance with the present invention on cell proliferation, glioma cell lines were treated with MJ-66, MJ-68, or MJ-78. […] The cell viability of each group was analyzed by MTS assay (mean±SEM, n=3).

The subject of a further assay is Hep3B. Description: trypan blue exclusion assay, Hep3B cells. To be noted: Hep3B human hepatoma. Here is the method:
Hep3B (human hepatocellular carcinoma) and H460 (lung non-small carcinoma) cells were grown in monolayer culture in Dulbecco's modified Eagle's medium (DMEM) (Life Technologies, Rockville, Md., USA) containing 5% fetal bovine serum (HyClone, Logan, Utah, USA), 100 U/ml penicillin and 100 μg/ml streptomycin (Gibco BRL, Rockville, Md., USA) and 2 mM glutamine (Merck, Darmstadt, Germany).
(§1) Cell viability was also determined by trypan-blue exclusion assay. Cells were seeded in 6-well plates (2×10^4/well) for trypan blue exclusion assay, and incubated for 24 hours at 37° C. Culture medium containing test compound or DMSO (0.006%) was added to each well, and cells were incubated at 37° C. At indicated time points (0, 24, 48, 72 and 96 hr), cells were suspended with 0.05% trypsin-EDTA, and stained with trypan-blue dye (0.4%) (Sigma). The cell viability was evaluated by the percentage of death relative to the total cell, and cell growth curve was determined by number of live cells relative to the total number of cells.
(§2) The anti-proliferation effects of Compounds 17-31 on M21, CH27, H460, Hep3B and HSC-3 cells were evaluated by the trypan blue exclusion assay.

Another assay relates to CH27. Description: trypan blue exclusion assay, CH27 cells. To be noted: CH27 human lung squamous carcinoma. Here is the method: CH27 cells (Human lung squamous carcinoma) were grown in monolayer culture in Dulbecco's modified Eagle's medium (DMEM; Life Technologies, Rockville, Md., USA) containing 5% FBS (HyClone, Logan, Utah, USA), 100 U/ml penicillin, […] streptomycin (Gibco BRL, Rockville, Md., USA) and 2 mM glutamine (Merck, Darmstadt, Germany).
as §1, §2

`O=c1[nH]c(-c2cccc3ccccc23)nc2ccc(N3CCCC3)cc12` [Compound 23, 6-(Pyrrolidin-1-yl)-2-(naphthalen-1-yl)quinazolin-4-one]: the IC50 came out at 56 ± 9 nM with C6 rat glioma, 1350 nM in the assay with Hep3B and 53 nM in the assay with CH27.

For the origin of these results see US8710064B2, “2-aryl-4-quinazolinones and their pharmaceutical compositions” (China Medical University, priority 2011, dated 2014).
